Biological target: T1, Ornithine decarboxylase (ODC) (Rattus norvegicus, UniProt P09057)
T1 construct: is prepared from the livers of rats which have been injected with thioacetamide; from tissue; host or cells: rat liver (thioacetamide-induced)
T1 sequence (P09057 1-461): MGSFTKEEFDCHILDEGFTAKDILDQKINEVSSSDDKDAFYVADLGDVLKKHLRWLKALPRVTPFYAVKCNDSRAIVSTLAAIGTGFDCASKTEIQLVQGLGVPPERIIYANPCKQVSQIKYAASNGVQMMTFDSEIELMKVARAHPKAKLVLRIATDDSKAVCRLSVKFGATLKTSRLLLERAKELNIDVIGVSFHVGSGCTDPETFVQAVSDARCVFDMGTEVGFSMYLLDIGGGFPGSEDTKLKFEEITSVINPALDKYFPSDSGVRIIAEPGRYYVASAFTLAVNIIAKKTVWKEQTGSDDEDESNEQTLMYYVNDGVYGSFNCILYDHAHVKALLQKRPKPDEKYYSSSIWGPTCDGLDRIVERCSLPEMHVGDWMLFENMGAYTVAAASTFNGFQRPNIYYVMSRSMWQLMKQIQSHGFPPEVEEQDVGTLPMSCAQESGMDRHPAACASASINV
Assay: In vitro time-dependent inhibition of ornithine decarboxylase (14CO2 release from DL-[1-14C]ornithine; Kitz and Wilson analysis)
Assay type: biochemical, rats
Conditions: calculated by method of Kitz and Wilson; for Ki: apparent dissociation constant, ODC from livers of thioacetamide-treated rats, incubated at 37°; for ODC τ50: half-life at infinite concentration of inhibitor, rat liver ODC, 37°
Method: The stock solution of ODC is composed of proteins (16 mg/mL), sodium phosphate buffer (30 mM, pH 7.1), dithiothreitol (5 mM) and pyridoxal phosphate (0.1 mM). The specific activity of this stock solution is 0.12 nmol of CO2/min per mg of protein. For a typical experiment 320 µl of this stock solution is mixed at time 0 with 80 µl of a solution of the inhibitor in water and incubated at 37°. At different times 50 pl aliquots are transferred into a 1 mL assay medium containing sodium phosphate (30 mM, pH 7.1), dithiothreitol (5 mM), pyridoxal phosphate (0.1 mM), L-ornithine (0.081 pmol), and DL-[1-^14C] ornithine (0.043 pmol, 58 Ci/mol, Amersham) in a closed vessel in which a filter paper moistered with 50 µl hyamine hydroxide (1 M) is fitted. The reaction is allowed to proceed for 60 min at 37°C and then terminated by addition of 0.5 ml of 40% trichloroacetic acid. After an additional 30 min, the CO2 absorbed on the filter paper is counted in a standard scintillation cocktail.

Row | Structure (SMILES) | Ki | ODC τ50
1 | C=C(CN)CC(N)(CF)C(=O)O (stereo not shown) [D, 2-fluoromethyl-2,5-diamino-4-methylene-pentanoic acid] | 53 µM | 3.6 min
2 | NCC(=O)CC(N)(CF)C(=O)O (stereo not shown) [A, 2-fluoromethyl-2,5-diamino-4-oxo-pentanoic acid] | 4.8 µM | 3.1 min
3 | NCC(=O)CC(N)CF (stereo not shown) [C, 1-fluoro-2,5-diamino-4-oxo-pentane] |  | 1.6 min
4 | C=C(CN)CC(N)CF (stereo not shown) [B, 1-fluoro-2,5-diamino-4-methylene-pentane] |  | 2.6 min
5 | C=C(CN)CC(N)C(F)F (stereo not shown) [E, 1,1-difluoro-2,5-diamino-4-methylene-pentane] |  | 2.2 min

— patent EP0072761B1, “Decarboxylase-inhibiting fluorinated alkane diamine derivatives” (MERRELL TORAUDE ET COMPAGNIE, priority 1981, dated 1983)
